Experimental data reported in patent publication EP2607478A1, “Phenanthroline treated MSC” (Universiteit Twente, priority 2011, dated 2013).

Tested on: MSCs
Assay: Whole genome expression analysis (Illumina microarray) of treated MSCs
Type: cell-based, Human
Protocol: MSCs were seeded in T25 flasks at 5000 cells/cm^2 and allowed to attach overnight in proliferation medium. […] After 48 hours, RNA was isolated as described above. From 500 ng of RNA, cRNA was synthesized using the Illumina TotalPrep RNA amplification Kit (Ambion), according to the manufacturer's protocol and the quality of RNA and cRNA was verified on a Bioanalyzer 2100 (Agilent). Microarrays were performed using Illumina HT-12 v4 expression Beadchips, according to the manufacturer's protocol. Briefly, 750 ng of cRNA was hybridized on the array overnight after which the array was washed and blocked. Then, by addition of streptavidin Cy-3 a fluorescent signal was developed. Arrays were scanned on an Illumina iScan reader and raw intensity values were background corrected in GenomeStudio (Illumina). Further data processing and statistical testing were performed with R and Bioconductor statistical software (www.bioconductor.org), using package lumi. Raw intensity values were transformed using variance stabilization and a quantile normalization was performed. A linear modelling approach with empirical Bayesian methods, as implemented in Limma package (54), was applied for differential expression analysis of the resulting probe-level expression values. A gene list, containing only those genes with an absolute 1.5-fold change between different treatments, was uploaded to Ingenuity Pathway Analysis (IPA) software and used for core analysis. Pathways or networks with a p-value of 0.05 were considered statistically significant.

With c1cnc2c(c1)ccc1cccnc12 [PHE, 1, 10-phenanthroline] the “logFC(D142_PHE - D142_BAS)” value (ProbeID ILMN_1827736, no gene name printed) was 2,01, the “logFC(D142_PHE - D142_BAS)” value (ProbeID ILMN_1843198, no gene name printed) was 4,02 and the “logFC(D142_PHE - D142_BAS)” value (ProbeID ILMN_1854469, no gene name printed) was -2,31. For the same compound, the “logFC(D142_PHE - D142_BAS)” value (ProbeID ILMN_1862909, no gene name printed) was 2,60, the “logFC(D142_PHE - D142_BAS)” value (ProbeID ILMN_1890614, no gene name printed) was 3,60 and the “logFC(D142_PHE - D142_BAS) LDLR” value (ProbeID ILMN_2053415) was -2,22. For the same compound, the “logFC(D142_PHE - D142_BAS) PTGS2” value (ProbeID ILMN_2054297) was 2,59, the “logFC(D142_PHE - D142_BAS) GAS1” value (ProbeID ILMN_2062701) was -2,22 and the “logFC(D142_PHE - D142_BAS) GOLGA8B” value (ProbeID ILMN_2103547) was 2,29. The “logFC(D142_PHE - D142_BAS) EEF1A2” value (ProbeID ILMN_2108735) was 4,24, the “logFC(D142_PHE - D142_BAS) NPM3” value (ProbeID ILMN_2110252, PHE vs BAS) was -2,68 and the “logFC(D142_PHE - D142_BAS) CTHRC1” value (ProbeID ILMN_2117508, PHE vs BAS) was -3,58. The “logFC(D142_PHE - D142_BAS) LRIG1” value (ProbeID ILMN_2128795) was 2,70, the “logFC(D142_PHE - D142_BAS) CYBASC3” value (ProbeID ILMN_2129505) was -2,00 and the “logFC(D142_PHE - D142_BAS) IGFBP5” value (ProbeID ILMN_2132982) was 2,36. For the same compound, the “logFC(D142_PHE - D142_BAS) POL3S” value (ProbeID ILMN_2133187) was 2,59, the “logFC(D142_PHE - D142_BAS) PLIN2” value (ProbeID ILMN_2138765) was 3,41 and the “logFC(D142_PHE - D142_BAS) HIST2H2AA3” value (ProbeID ILMN_2144426) was 3,65. For the same compound, the “logFC(D142_PHE - D142_BAS) TNC” value (ProbeID ILMN_2145670, PHE vs BAS) was -2,96, the “logFC(D142_PHE - D142_BAS) GBP1” value (ProbeID ILMN_2148785, PHE vs BAS) was -2,77 and the “logFC(D142_PHE - D142_BAS) SERPINB2” value (ProbeID ILMN_2150851) was 2,73. The “logFC(D142_PHE - D142_BAS) SERPINB2” value (ProbeID ILMN_2150856) was 2,92, the “logFC(D142_PHE - D142_BAS) ALDH1B1” value (ProbeID ILMN_2150894, PHE vs BAS) was -3,56 and the “logFC(D142_PHE - D142_BAS) MNS1” value (ProbeID ILMN_2157240) was -2,02. The “logFC(D142_PHE - D142_BAS) GPI” value (ProbeID ILMN_2173451) was 2,47, the “logFC(D142_PHE - D142_BAS) MT1E” value (ProbeID ILMN_2173611) was -2,20 and the “logFC(D142_PHE - D142_BAS) IL8” value (ProbeID ILMN_2184373) was 6,28. For the same compound, the “logFC(D142_PHE - D142_BAS) PFKFB3” value (ProbeID ILMN_2186061) was 5,23, the “logFC(D142_PHE - D142_BAS) RRAD” value (ProbeID ILMN_2186137) was 3,18 and the “logFC(D142_PHE - D142_BAS) GDF15” value (ProbeID ILMN_2188862) was 4,56. The “logFC(D142_PHE - D142_BAS) MELK” value (ProbeID ILMN_2212909) was -2,05, the “logFC(D142_PHE - D142_BAS) PGK1” value (ProbeID ILMN_2216852) was 2,97 and the “logFC(D142_PHE - D142_BAS) PTGR1” value (ProbeID ILMN_2225537) was 2,90. The “logFC(D142_PHE - D142_BAS) SLAMF9” value (ProbeID ILMN_2227248) was 2,67, the “logFC(D142_PHE - D142_BAS) PCDH18” value (ProbeID ILMN_2229877, PHE vs BAS) was -2,41 and the “logFC(D142_PHE - D142_BAS) BEX1” value (ProbeID ILMN_2234697, PHE vs BAS) was -4,70. The “logFC(D142_PHE - D142_BAS) LEPR” value (ProbeID ILMN_2234956, PHE vs BAS) was -2,85, the “logFC(D142_PHE - D142_BAS) KIAA0101” value (ProbeID ILMN_2285996, PHE vs BAS) was -3,27 and the “logFC(D142_PHE - D142_BAS) UBE2C” value (ProbeID ILMN_2301083) was -2,20. For the same compound, the “logFC(D142_PHE - D142_BAS) VCAM1” value (ProbeID ILMN_2307903, PHE vs BAS) was -5,09, the “logFC(D142_PHE - D142_BAS) WFDC3” value (ProbeID ILMN_2308903) was 2,87 and the “logFC(D142_PHE - D142_BAS) MAFF” value (ProbeID ILMN_2322375) was 3,04. For the same compound, the “logFC(D142_PHE - D142_BAS) RORA” value (ProbeID ILMN_2322498) was 2,13, the “logFC(D142_PHE - D142_BAS) CALD1” value (ProbeID ILMN_2324002) was -2,11 and the “logFC(D142_PHE - D142_BAS) TXNRD1” value (ProbeID ILMN_2324421) was 2,30. The “logFC(D142_PHE - D142_BAS) MSRB3” value (ProbeID ILMN_2332553) was -2,12, the “logFC(D142_PHE - D142_BAS) PORCN” value (ProbeID ILMN_2337058) was 3,30 and the “logFC(D142_PHE - D142_BAS) AK3L1” value (ProbeID ILMN_2338038) was 2,61. For the same compound, the “logFC(D142_PHE - D142_BAS) METRNL” value (ProbeID ILMN_2342066) was 2,12, the “logFC(D142_PHE - D142_BAS) FMO3” value (ProbeID ILMN_2344283) was -2,27 and the “logFC(D142_PHE - D142_BAS) BIRC5” value (ProbeID ILMN_2349459, PHE vs BAS) was -2,71. The “logFC(D142_PHE - D142_BAS) MAD1L1” value (ProbeID ILMN_2358069) was 2,09, the “logFC(D142_PHE - D142_BAS) TPM1” value (ProbeID ILMN_2360710) was -2,27 and the “logFC(D142_PHE - D142_BAS) VLDLR” value (ProbeID ILMN_2361862) was 3,53. The “logFC(D142_PHE - D142_BAS) SLC16A3” value (ProbeID ILMN_2364022) was 2,29, the “logFC(D142_PHE - D142_BAS) SMOX” value (ProbeID ILMN_2367258) was 2,05 and the “logFC(D142_PHE - D142_BAS) CXCR7” value (ProbeID ILMN_2371458) was 2,54. The “logFC(D142_PHE - D142_BAS) MUC1” value (ProbeID ILMN_2371911) was 2,27, the “logFC(D142_PHE - D142_BAS) ATF3” value (ProbeID ILMN_2374865) was 2,39 and the “logFC(D142_PHE - D142_BAS) VEGFA” value (ProbeID ILMN_2375879) was 4,30. The “logFC(D142_PHE - D142_BAS) KCNK2” value (ProbeID ILMN_2376953, PHE vs BAS) was -3,27, the “logFC(D142_PHE - D142_BAS) PTPRF” value (ProbeID ILMN_2380163) was 2,36 and the “logFC(D142_PHE - D142_BAS) AKR1A1” value (ProbeID ILMN_2380771) was -2,14. The “logFC(D142_PHE - D142_BAS) P4HA2” value (ProbeID ILMN_2381697) was 2,27, the “logFC(D142_PHE - D142_BAS) CA12” value (ProbeID ILMN_2382942) was 2,61 and the “logFC(D142_PHE - D142_BAS) ANGPTL4” value (ProbeID ILMN_2386444) was 3,59. The “logFC(D142_PHE - D142_BAS) EPSTI1” value (ProbeID ILMN_2388547, PHE vs BAS) was -2,93, the “logFC(D142_PHE - D142_BAS) PSMB8” value (ProbeID ILMN_2390299, PHE vs BAS) was -2,40 and the “logFC(D142_PHE - D142_BAS) UBE2E3” value (ProbeID ILMN_2390338) was -2,31. For the same compound, the “logFC(D142_PHE - D142_BAS) FBLN2” value (ProbeID ILMN_2390919) was -2,30, the “logFC(D142_PHE - D142_BAS) TAGLN” value (ProbeID ILMN_2400935, PHE vs BAS) was -3,44 and the “logFC(D142_PHE - D142_BAS) FAM13A” value (ProbeID ILMN_2401258) was 2,84. The “logFC(D142_PHE - D142_BAS) RIOK3” value (ProbeID ILMN_2404135) was 2,47, the “logFC(D142_PHE - D142_BAS) ARNTL” value (ProbeID ILMN_2405305) was 2,05 and the “logFC(D142_PHE - D142_BAS) PODXL” value (ProbeID ILMN_2413158) was 3,57. For the same compound, the “logFC(D142_PHE - D142_BAS) LOC100130790” value (ProbeID ILMN_3181489) was 3,33, the “logFC(D142_PHE - D142_BAS) LOC727803” value (ProbeID ILMN_3212373) was -2,02 and the “logFC(D142_PHE - D142_BAS) LOC730415” value (ProbeID ILMN_3228688) was 2,25. For the same compound, the “logFC(D142_PHE - D142_BAS) LOC390557” value (ProbeID ILMN_3233930) was 2,45, the “logFC(D142_PHE - D142_BAS) LOC100133609” value (ProbeID ILMN_3237270) was 2,75 and the “logFC(D142_PHE - D142_BAS) BEND5” value (ProbeID ILMN_3237448) was 2,26. For the same compound, the “logFC(D142_PHE - D142_BAS) C4orf47” value (ProbeID ILMN_3237511) was 2,24, the “logFC(D142_PHE - D142_BAS) FBXL11” value (ProbeID ILMN_3237966) was 2,06 and the “logFC(D142_PHE - D142_BAS) DLGAP5” value (ProbeID ILMN_3239771) was -2,24. The “logFC(D142_PHE - D142_BAS) HIST2H2AA4” value (ProbeID ILMN_3242900) was 3,75, the “logFC(D142_PHE - D142_BAS) FAM180A” value (ProbeID ILMN_3245418) was 2,34 and the “logFC(D142_PHE - D142_BAS) LOC730743” value (ProbeID ILMN_3247132, PHE vs BAS) was -2,35. The “logFC(D142_PHE - D142_BAS) GAPDHL6” value (ProbeID ILMN_3267451) was 2,90, the “logFC(D142_PHE - D142_BAS) LOC100132510” value (ProbeID ILMN_3280402) was 2,32 and the “logFC(D142_PHE - D142_BAS) LOC644237” value (ProbeID ILMN_3283772) was 2,73. The “logFC(D142_PHE - D142_BAS) LOC729708” value (ProbeID ILMN_3305475) was 2,12, the “logFC(D142_PHE - D142_BAS) LOC730246” value (ProbeID ILMN_3305949) was -2,06 and the “logFC(D142_PHE - D142_BAS) MIR1974” value (ProbeID ILMN_3308961) was 3,51.
